pIC50: −log10 of the molar value.
How the values were obtained:
A2780 ovarian cells [1] = experiment: A2780 Ovarian Cell Proliferation Assay in Lipid Reduced Medium, with Palmitate (control); assay type: cell-based; conditions: Homo sapiens, A2780; lipid reduced medium, 25 μM palmitate, 96 h, MTT; read-out: Proliferation A2780 with Palmitate pIC50 (converted)
Method: (§1) The biological assays described below correspond to comparative assays for ovarian cell proliferation. […] Compounds active in the absence of palmitate would not be expected to be active in the control.
(§2) 2500 cells were seeded in a 96-well clear well plate in 200 μL RPMI1640 with 10% Fetal Calf Serum (Hyclone), and incubated at 37° C., 5% CO2. Blanks were wells without cells. The next day the culture medium was aspirated and replaced by 160 μL culture medium with 10% Lipid-Reduced Serum (LRS, Hyclone). 20 μL test compound (at concentrations of 30 μM, 10 μM, 3 μM, 1 μM, 0.30 μM, 0.10 μM, 0.03 μM and 0.01 μM)/DMSO dilution followed by 20 μL palmitate-BSA solution were added to a final concentrations of 0.2% DMSO, 25 μM palmitate (Sigma, P0500, 10 mM stock solution in ethanol) 0.2% fatty-acid-free BSA, 0.25% ethanol. After 96 h incubation, an MTT assay was performed. The absorbance was measured at 544 nm on a SPECTRAMAX.
A best fit curve was fitted by a minimum sum of squares method, plotting Controlmin versus test compound concentration. From the plot, an IC50 (concentration at which 50% inhibition is achieved) was calculated. pIC50 values, presented in the Table below, were calculated as −log(IC50).
(§3) Representative compounds of the present invention were tested according to the procedure as described in Biological Example 3 above, with results as listed in Table BIO-3, below.

[2] = target: T1, FASN Keto-reductase Domain (Homo sapiens, UniProt P49327); experiment: Fatty Acid Synthase Keto-Reductase Domain (FASN KR) Inhibition; assay type: biochemical; conditions: mean where tested more than once; read-out: FASN K-R Domain pIC50 (converted)
T1 construct: 10 μL hFASN enzyme (full length, 300 ng, purified in house) and 360 μM NADPH; made in house
T1 sequence (P49327 whole entry, the tested form may be a part): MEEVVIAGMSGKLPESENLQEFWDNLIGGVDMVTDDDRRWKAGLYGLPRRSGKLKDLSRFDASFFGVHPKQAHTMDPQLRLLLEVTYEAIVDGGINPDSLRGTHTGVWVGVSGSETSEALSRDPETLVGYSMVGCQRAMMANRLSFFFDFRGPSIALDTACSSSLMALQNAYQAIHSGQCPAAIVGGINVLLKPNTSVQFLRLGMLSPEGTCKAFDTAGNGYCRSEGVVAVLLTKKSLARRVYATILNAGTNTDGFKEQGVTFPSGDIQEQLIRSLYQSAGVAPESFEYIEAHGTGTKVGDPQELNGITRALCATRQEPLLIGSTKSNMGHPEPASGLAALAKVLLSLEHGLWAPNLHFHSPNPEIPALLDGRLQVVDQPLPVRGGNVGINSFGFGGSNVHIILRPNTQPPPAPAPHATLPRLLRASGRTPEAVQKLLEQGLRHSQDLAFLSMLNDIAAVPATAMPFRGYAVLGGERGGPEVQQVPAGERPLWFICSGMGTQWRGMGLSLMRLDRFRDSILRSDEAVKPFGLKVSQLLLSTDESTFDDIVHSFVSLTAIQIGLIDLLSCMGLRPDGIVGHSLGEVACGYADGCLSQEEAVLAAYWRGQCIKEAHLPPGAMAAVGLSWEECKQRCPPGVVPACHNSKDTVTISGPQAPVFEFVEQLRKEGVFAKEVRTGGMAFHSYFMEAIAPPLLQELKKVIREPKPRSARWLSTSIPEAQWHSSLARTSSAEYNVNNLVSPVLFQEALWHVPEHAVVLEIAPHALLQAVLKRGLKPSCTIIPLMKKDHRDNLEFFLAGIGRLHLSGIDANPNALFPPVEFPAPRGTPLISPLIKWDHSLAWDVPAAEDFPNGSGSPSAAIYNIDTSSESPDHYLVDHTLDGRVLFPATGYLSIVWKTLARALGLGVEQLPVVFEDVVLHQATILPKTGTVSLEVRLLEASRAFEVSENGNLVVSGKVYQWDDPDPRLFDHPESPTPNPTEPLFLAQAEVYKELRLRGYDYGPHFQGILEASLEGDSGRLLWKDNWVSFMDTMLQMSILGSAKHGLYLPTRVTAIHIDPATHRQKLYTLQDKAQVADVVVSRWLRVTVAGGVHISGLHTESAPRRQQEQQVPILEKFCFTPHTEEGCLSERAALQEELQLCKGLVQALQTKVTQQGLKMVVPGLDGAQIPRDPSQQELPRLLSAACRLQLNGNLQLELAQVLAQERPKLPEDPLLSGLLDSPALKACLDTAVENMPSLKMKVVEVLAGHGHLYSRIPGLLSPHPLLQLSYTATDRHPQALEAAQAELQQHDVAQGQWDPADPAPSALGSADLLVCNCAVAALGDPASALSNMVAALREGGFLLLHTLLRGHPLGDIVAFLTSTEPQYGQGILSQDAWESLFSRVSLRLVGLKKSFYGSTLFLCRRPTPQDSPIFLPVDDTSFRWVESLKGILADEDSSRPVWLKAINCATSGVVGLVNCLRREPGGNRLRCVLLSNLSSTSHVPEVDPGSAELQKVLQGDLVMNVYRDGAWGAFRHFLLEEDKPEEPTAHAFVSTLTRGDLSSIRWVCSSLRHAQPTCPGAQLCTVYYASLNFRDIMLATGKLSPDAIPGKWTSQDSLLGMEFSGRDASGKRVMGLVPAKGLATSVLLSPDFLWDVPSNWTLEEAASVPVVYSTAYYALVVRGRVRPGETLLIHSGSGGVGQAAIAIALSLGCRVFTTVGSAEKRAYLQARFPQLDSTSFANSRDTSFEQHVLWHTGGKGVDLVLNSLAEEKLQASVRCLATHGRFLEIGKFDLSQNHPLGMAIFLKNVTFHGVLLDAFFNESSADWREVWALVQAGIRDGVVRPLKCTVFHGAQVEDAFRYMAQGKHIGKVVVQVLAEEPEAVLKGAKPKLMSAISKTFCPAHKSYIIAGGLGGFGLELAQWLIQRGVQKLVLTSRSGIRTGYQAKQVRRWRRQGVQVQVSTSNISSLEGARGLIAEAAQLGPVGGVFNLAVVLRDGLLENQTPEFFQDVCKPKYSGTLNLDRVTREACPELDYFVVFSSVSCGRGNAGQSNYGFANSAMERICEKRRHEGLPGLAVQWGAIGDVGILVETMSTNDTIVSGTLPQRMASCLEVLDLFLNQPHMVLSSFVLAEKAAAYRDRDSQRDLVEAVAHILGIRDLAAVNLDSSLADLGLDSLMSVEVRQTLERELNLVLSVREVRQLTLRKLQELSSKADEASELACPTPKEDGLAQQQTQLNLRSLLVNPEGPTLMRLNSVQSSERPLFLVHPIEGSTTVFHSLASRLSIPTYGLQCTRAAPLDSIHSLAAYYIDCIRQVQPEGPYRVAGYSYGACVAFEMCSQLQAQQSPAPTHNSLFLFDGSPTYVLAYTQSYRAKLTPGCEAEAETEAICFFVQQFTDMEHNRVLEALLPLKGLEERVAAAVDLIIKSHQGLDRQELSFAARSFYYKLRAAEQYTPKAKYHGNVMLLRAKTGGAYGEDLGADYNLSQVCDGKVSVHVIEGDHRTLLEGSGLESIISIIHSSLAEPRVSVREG
Method: 10 μL assay buffer (100 mM KH2PO4 pH 7.5) was added to a 384-well clear plate (costar 3702). 0.3 μL compound (at concentrations of 30 μM, 10 μM, 3 μM, 1 μM, 0.30 μM, 0.10 μM, 0.03 μM and 0.01 μM)/DMSO, 10 μL hFASN enzyme (full length, 300 ng, purified in house) and 360 μM NADPH (except in blank) were then added. Then, 10 μL 180 mM ethyl acetoacetate (Aldrich 688983) was added, mixed and immediately thereafter, the absorbance at 340 nm (T1) by Multiscan (Labsystems) was measured. After 20 minutes incubation at room temperature the plate was measured again (T2).
The decrease in absorbance was calculated as (Absorbance before incubation T1)−(Absorbance following incubation T2).
(§4) Raw data generated by the instrument were normalized to % Controlmin values, which were calculated as: % Controlmin=100*(x−mLC)/(mHC−mLC)
(§5) where mLC and mHC were the means of the low control wells and high control wells on the plate, after manual exclusion of outliers. A plot of Controlmin versus test compound concentration was fitted to a 4-parameter logistic curve using a non-linear least squares regression method. From the plot, an IC50 (concentration at which 50% inhibition is achieved) was calculated. pIC50 values were calculated as −log(IC50), when IC50 is expressed in molar units.

[3] = target: T2, hFASN enzyme (full length) (Homo sapiens, UniProt P49327); experiment: Fatty Acid Synthase (FASN) Inhibition Scintillation Proximity Assay; assay type: biochemical; conditions: for pIC50: mean where tested more than once, ~ = standard error of pIC50 larger than 0.5; for inhibition at 10 µM: read-out: FASN % Effect @1E−05M
T2 construct: 10 μL hFASN enzyme (full length, 300 ng, purified in house); made in house
T2 sequence (P49327 whole entry): as the sequence (P49327 whole entry, the tested form may be a part) above
Method: In this assay, inhibition of FASN activity is measured using ^3H-acetyl-CoA and malonyl-CoA as substrates. ^3H-Acetyl CoA is converted to ^3H-palmitate through a series of reactions by the FASN protein, which contains 7 functional domains and carries out 7 enzymatic reactions to ultimately produce ^3H-palmitate. The assay principle is based upon the fact that ^3H-acetyl-CoA is hydrophilic and the end product, ^3H-palmitate is hydrophobic.
10 μL assay buffer (100 mM KH2PO4 pH 7.5, 1 mM DTT) (20 μL in blanks) was added to a 384-well white Opti Plate plate (Perkin Elmer). 0.9 μL test compound (at concentrations of 30 μM, 10 μM, 3 μM, 1 μM, 0.30 μM, 0.10 μM, 0.03 μM and 0.01 μM)/DMSO and 10 μL hFASN enzyme (full length, 300 ng, purified in house) or 10 μL assay buffer was added to the wells. Then 10 μL 450 μM NADPH (Sigma N7505), 18.75 μM [^3H]-acetyl-CoA (Perkin Elmer NET-290L), 150 μM malonyl-CoA (Sigma M4263) were added, mixed and incubated at room temperature for 60 minutes. The reaction was stopped by adding 20 μL Streptavidin coupled imaging beads (25 mg/ml). After incubation for 30 minutes at room temperature in the dark, the 384 well plate was centrifuged at 1500 rpm for 3 minutes and was measured after at least 24 hrs by the LEADseeker™, measuring emission using a 610±20 nm pass filter. (Bays, N. W., et al., “A simplified scintillation proximity assay for fatty acid synthase activity: development and comparison with other FAS activity assays”, J. Biomol. Screen, 2009, pp 636-642, Vol. 14(6).)
as §4, §5

A2780 ovarian cells [4] = experiment: A2780 Ovarian Cell Proliferation Assay in Lipid Reduced Medium, without Palmitate; assay type: cell-based; conditions: Homo sapiens, A2780; lipid reduced medium, without palmitate, 96 h, MTT; read-out: Proliferation A2780 w/o Palmitate pIC50 (converted)
Method: as §1
as §2, with “ethanol-BSA” for “palmitate-BSA”, “DMSO,” for “DMSO, 25 μM palmitate (Sigma, P0500, 10 mM stock solution in ethanol)”, “incubation” for “incubation,”
as §4, §5, §3

| SMILES | IC50 (A2780 ovarian cells [1]) | IC50 [2] | pIC50 [3] | inhibition at 10 µM [3] | IC50 (A2780 ovarian cells [4]) |
| --- | --- | --- | --- | --- | --- |
| Cc1ccc(C(=O)N2CC[C@H](c3ccc(-n4ccnc4)cc3)[C@H](C)C2)cc1NC(=O)c1ccc(Cl)nc1 (racemic) [Compound 53, (±)-N-(5-((3S,4S)-4-(4-(1H-imidazol-1-yl)phenyl)-3-methylpiperidine-1-carbonyl)-2-methylphenyl)-6-chloronicotinamide] | 8510 nM | 562 nM | 6.60 | 101% | 603 nM |
| Cc1ccc(C(=O)N2CC[C@H](c3ccc(-n4ccnc4)cc3)[C@@H](C)C2)cc1NC(=O)c1ccc(Cl)nc1 (racemic) [Compound 54, (±)-N-(5-(4-((3R,4S)-4-(1H-imidazol-1-yl)phenyl)-3-methylpiperidine-1-carbonyl)-2-methylphenyl)-6-chloronicotinamide] | > 10000 nM | 288 nM | 6.63 | 104% | 204 nM |
| Cc1ccc(C(=O)N2CC[C@H](c3ccc(-c4ccnn4C)cc3)[C@H](C)C2)cc1NC(=O)c1ccc(NC(C)C)nc1 (racemic) [Compound #76, (±)-6-(Isopropylamino)-N-(2-methyl-5-((3S,4S)-3-methyl-4-(4-(1-methyl-1H-pyrazol-5-yl)phenyl)piperidine-1-carbonyl)phenyl)nicotinamide] | 2000 nM | 1380 nM | 6.20 | 91% | 1050 nM |
| CC(C)Nc1ccc(C(=O)Nc2cc(C(=O)N3CC[C@H](c4ccc(-c5ccnn5C)cc4)[C@@H](O)C3)ccc2Cl)cn1 (racemic) [Compound #77, (±)-N-(2-chloro-5-((3R,4R)-3-hydroxy-4-(4-(1-methyl-1H-pyrazol-5-yl)phenyl)piperidine-1-carbonyl)phenyl)-6-(isopropylamino)nicotinamide] | 15100 nM | 1070 nM | 6.75 | 105% | 851 nM |
| Cc1ccc(C(=O)N2CCC(c3ccc4nccn4c3)CC2)cc1NC(=O)c1ccc(Cl)nc1 [Compound 14, 6-chloro-N-(5-(4-(imidazo[1,2-a]pyridin-6-yl)piperidine-1-carbonyl)-2-methylphenyl)nicotinamide] |  | 17000 nM | < 4.52 | 30% |  |
| Cc1ccc(C(=O)N2CCC(c3ccc4nccn4c3)CC2)cc1NC(=O)c1ccc(NC(C)C)nc1 [Compound 17, N-(5-(4-(imidazo[1,2-a]pyridin-6-yl)piperidine-1-carbonyl)-2-methylphenyl)-6-(isopropylamino)nicotinamide] |  | 8130 nM | ~4.89 | 51% |  |
| Cc1ccc(C(=O)N2CCC(c3ccc4nncn4c3)CC2)cc1NC(=O)c1ccc(Cl)nc1 [Compound 18, N-(5-(4-([1,2,4]triazolo[4,3-a]pyridin-6-yl)piperidine-1-carbonyl)-2-methylphenyl)-6-chloronicotinamide] |  | > 30200 nM | < 4.52 | 2% |  |
| Cc1ccc(C(=O)N2CCC(c3ccc4c(c3)CN(C)C4=O)CC2)cc1NC(=O)c1ccc(NC(C)C)nc1 [Compound 19, 6-(isopropylamino)-N-(2-methyl-5-(4-(2-methyl-1-oxoisoindolin-5-yl)piperidine-1-carbonyl)phenyl)nicotinamide] |  | 5500 nM | 5.18 | 50% |  |
| Cc1ccc(C(=O)N2CCC(c3ccc4c(c3)C(C)N(C)C4=O)CC2)cc1NC(=O)c1ccc(Cl)nc1 (centres unmarked) [Compound 21, 6-chloro-N-(5-(4-(2,3-dimethyl-1-oxoisoindolin-5-yl)piperidine-1-carbonyl)-2-methylphenyl)nicotinamide] |  | 13200 nM | 4.56 | 22% |  |
| Cc1ccc(C(=O)N2CCC(c3ccc4c(c3)C(C)N(C)C4=O)CC2)cc1NC(=O)c1ccc(NC(C)C)nc1 (centres unmarked) [Compound 22, N-(5-(4-(2,3-dimethyl-1-oxoisoindolin-5-yl)piperidine-1-carbonyl)-2-methylphenyl)-6-(isopropylamino)nicotinamide] |  | 7940 nM | 5.31 | 60% |  |
| Cc1ccc(C(=O)N2CCC(c3ccc(-c4cnn(C)c4)cc3)CC2)cc1NC(=O)c1ccccc1 [Compound 115, N-(2-methyl-5-(4-(4-(1-methyl-1H-pyrazol-4-yl)phenyl)piperidine-1-carbonyl)phenyl)benzamide] | > 10000 nM |  |  | 99% | 162 nM |
| COc1ncccc1C(=O)Nc1cc(C(=O)N2CCC(c3ccc(-c4cnn(C)c4)cc3)CC2)ccc1C [Compound 118, 2-methoxy-N-(2-methyl-5-(4-(4-(1-methyl-1H-pyrazol-4-yl)phenyl)piperidine-1-carbonyl)phenyl)nicotinamide] | 2750 nM | 288 nM |  |  | 389 nM |
| Cc1ccc(C(=O)N2CCC(c3ccc(-c4cnn(C)c4)cc3)CC2)cc1NC(=O)c1ccc(N2CCN[C@H](CO)C2)nc1 [Compound 164, (3S)-6-(3-(hydroxymethyl)piperazin-1-yl)-N-(2-methyl-5-(4-(4-(1-methyl-1H-pyrazol-4-yl)phenyl)piperidine-1-carbonyl)phenyl)nicotinamide] |  | 41.7 nM | 7.68 | 110% |  |
| COc1ccc(C(=O)N2CC(c3ccc(-c4cnn(C)c4)cc3)C2)cc1NC(=O)c1ccc(Cl)nc1 [Compound 183, 6-chloro-N-(2-methoxy-5-(3-(4-(1-methyl-1H-pyrazol-4-yl)phenyl)azetidine-1-carbonyl)phenyl)nicotinamide] | > 10000 nM |  |  | 98% | 407 nM |

— US9562035B2, “Benzamide derivative useful as FASN inhibitors for the treatment of cancer” (Janssen Pharmaceutica NV, priority 2013, dated 2017)
